# According to patent publication US8569324B2, “Potentiator for radiation therapy comprising pyridine derivative as active ingredient” (Taiho Pharmaceutical Co., Ltd., priority 2005, dated 2013):
# Several values for one entry are separate records, joined by “and”; a condition that tells them apart may be missing. Equal entries are not always repeated.
# Experiments:
# [1] = tested on: human lung cancer strain (LC-11); assay: Test Example 1: radiotherapy enhancing effect of CDHP on human lung cancer strain LC-11 transplanted into nude mice; format: in vivo, BALB/cA-nu mouse
# Protocol: (a) Preparation of test solution: 5-Chloro-2,4-dihydroxypyridine (CDHP) was suspended in a 0.5% (W/V) hydroxypropylmethylcellulose (HPMC) solution at concentrations of 0.25 and 2.5 mg/mL, and the suspension was stirred with a stirrer at room temperature for about 10 minutes and ultrasonicated for about 5 minutes with ice cooling to obtain a drug solution of 2.5 or 25 mg/kg/day as CDHP. (b) Method for Radiation (X-ray) irradiation: Local irradiation was performed on a human tumor strain transplanted into the right femoral region of the mouse using MBR-1505R Type 2 X-ray Irradiation System of Hitachi Medical Corporation under an irradiation condition (irradiation position) so that exposure per mouse should be 2 Gy or 5 Gy. To prevent systemic irradiation, mice were placed in a storage box made of lead so that only their right leg should be exposed to radiation. (c) Test: The human lung cancer strain (LC-11) subcutaneously transplanted into the back of a BALB/cA-nu mouse and grown beforehand were removed, cut into small fragments of about 2×2 mm^2 with scissors in physiological saline, and subcutaneously transplanted into the right femoral region of 5 to 6-week-old mice of the same strain with a transplantation needle. The mice were bred for at least 1 to 2 weeks and divided into the control group, the radiation alone group, the drug alone group, and the drug plus radiation group, so that the tumor volume and standard deviation (S.D.) in each group (n=6 per group) should be as uniform as possible. Then, drug administration and X-ray irradiation were initiated. The drug treatment group was orally administered with 0.1 mL each of the above-described CDHP drug solution per body weight 10 g once daily for 14 consecutive days using a sonde for oral administration. The radiation group was irradiated with 2 Gy or 5 Gy of X-ray within about 1 hour after administration of the CDHP drug solution in the above-described manner on day 1, at the start of the test, and on day 8. Tumor-bearing mice in the control group (non-radiation/non-drug treatment group) and the radiation alone group were orally administered with 0.5% HPMC solution alone in the same manner for 14 consecutive days.
# By using the following numerical formula 1, the tumor volume of each mouse in each group was obtained prior to the start of treatment experiment, on days 3, 5, 8 (1 week later) and 11 during the treatment period, and days 15 (2 weeks later), 18, 22 (3 weeks later), 25, and 29 (4 weeks later) after completion of the treatment. A relative tumor volume (RTV) to the tumor volume at the start of the test was obtained for each mouse. […] The mean tumor growth inhibition rate (IR; %) in each treatment group based on the control group was obtained by using the following numerical formula 2 on days 15, at the end of the treatment period, and 29 at 4 weeks later and shown in Table 1.
# normal skin = assay: Test Example 3: effect of irradiation on disorders of normal tissues (normal skin), severity by method of Douglas et al.; format: in vivo, BALB/cA-nu mice; details: CDHP 50 mg/kg/day oral 7 days + 20 Gy X-ray on days 1 and 3; 6 animals; radiation alone: grades 1.5 or higher in all 6 after day 14
# Protocol: (a) Preparation of test solution: CDHP was suspended in a 0.5% (W/V) HPMC solution at a concentration of 5.0 mg/mL, and the suspension was stirred with a stirrer at room temperature for about 10 minutes and ultrasonicated with ice cooling for about 5 minutes to obtain a drug solution of 50 mg/kg/day as CDHP. (b) Method for X-ray irradiation: Local irradiation was performed on the right femoral region of the mouse using MBR-1505R Type 2 X-ray Irradiation System of Hitachi Medical Corporation under an irradiation condition (irradiation position) so that exposure per mouse should be 20 Gy. To prevent systemic irradiation, mice were placed in a storage box made of lead so that only their right leg should be exposed to radiation. (c) Test: Six to 8-week-old BALB/cA-nu mice were divided into the control group, the radiation alone group, and the drug plus radiation group, each consisting of 6 animals, and drug administration and X-ray irradiation were initiated. […] (d) Determination of severity of skin disorders: From 7 days after the end of the test, severity of skin disorders in the femoral region caused by irradiation was determined by the method of Douglas, et al. (Douglas B G, et al.: The effect of multiple small doses of X-rays on skin reactions in the mice and a basic interpretation. Radiation Res., 66: 401-426, 1976.).
# [2] = tested on: human lung cancer strain (LC-11); assay: Test Example 2: radiotherapy enhancing effect of CNDP on human lung cancer strain LC-11 transplanted into nude mice; format: in vivo, BALB/cA-nu mouse
# Protocol: (a) Preparation of test solution: 3-Cyano-2,6-dihydroxypyridine (CNDP) was suspended in a 0.5% (W/V) hydroxypropylmethylcellulose (HPMC) solution at concentrations of 2.5 and 5.0 mg/mL, and the suspension was stirred with a stirrer at room temperature for about 10 minutes and ultrasonicated for about 5 minutes with ice cooling to obtain a drug solution of 25 or 50 mg/kg/day as CNDP. (b) Method for radiation (X-ray) irradiation: Local irradiation was performed on a human tumor strain transplanted into the right femoral region of the mouse using MBR-1505R Type 2 X-ray Irradiation System of Hitachi Medical Corporation under an irradiation condition (irradiation position) so that exposure per mouse should be 2 Gy or 5 Gy. To prevent systemic irradiation, mice were placed in a storage box made of lead so that only their right leg should be exposed to radiation. (c) Test: The human lung cancer strain (LC-11) subcutaneously transplanted into the back of a BALB/cA-nu mouse and grown beforehand were removed, cut into small fragments of about 2×2 mm^2 with scissors in physiological saline, and subcutaneously transplanted into the right femoral region of 5 to 6-week-old mice of the same strain with a transplantation needle. The mice were bred for at least 1 to 2 weeks and divided into the control group, the radiation alone group, the drug alone group, and the drug plus radiation group, so that the tumor volume and standard deviation (S.D.) in each group (n=6 per group) should be as uniform as possible. Then, drug administration and X-ray irradiation were initiated. The drug treatment group was orally administered with 0.1 mL of the above-described 5 mg/mL CNDP drug solution per body weight 10 g once daily for 14 consecutive days using a sonde for oral administration. The radiation group was irradiated with 2 Gy or 5 Gy of X-ray within about 1 hour after administration of the CNDP drug solution in the above-described manner on day 1, at the start of the test, and on day 8. Tumor-bearing mice in the control group (non-radiation/non-drug treatment group) and the radiation alone group were orally administered with […] solution alone in the same manner for 14 consecutive days.
# By using the above-mentioned numerical formula 1, the tumor volume of each mouse in each group was obtained prior to the start of treatment experiment, on days 3, 5, 8, (1 week later) and 11 during the treatment period, and day 15 (2 weeks later) after completion of treatment. A relative tumor volume (RTV) to the tumor volume at the start of the test was obtained for each mouse (FIG. 1).
# [3] = tested on: human lung cancer LC-11 strain; assay: Comparative Example 1: radiotherapy enhancing effect of cisplatin on human lung cancer LC-11 strain transplanted into nude mice; format: in vivo, BALB/cA-nu mouse
# Protocol: (a) Preparation of test solution I: The cisplatin solution (0.5 mg/mL) available from Bristol-Myers Squibb Company was used as it was. 0.1 mL per mouse body weight 10 g was administered for the dose of cisplatin 5 mg/kg, and […] per mouse body weight 10 g was administered for the dose of 7.5 mg/kg. (b) Method for radiation (X-ray) irradiation: Local irradiation was performed on a human tumor strain transplanted into the right femoral region of the mouse using MBR-1505R Type 2 X-ray Irradiation System of Hitachi Medical Corporation under an irradiation condition (irradiation position) so that exposure per mouse should be 2 Gy or 5 Gy. To prevent systemic irradiation, mice were placed in a storage box made of lead so that only their right leg should be exposed to radiation. (c) Test: The human lung cancer LC-11 strain subcutaneously transplanted into the back of a BALB/cA-nu mouse and grown beforehand were removed, cut into small fragments of about 2×2 mm^2 with scissors in physiological saline, and subcutaneously transplanted into the right femoral region of 5 to 6-week-old mice of the same strain with a transplantation needle. The mice were bred for at least 1 to 2 weeks and divided into the control group, the radiation alone group, the drug alone group, and the drug plus radiation group, so that the tumor volume and standard deviation (S.D.) in each group (n=6 per group) should be as uniform as possible. Then, drug administration and X-ray irradiation were initiated. For the drug treatment group, 0.1 mL per body weight 10 g of a cisplatin solution for the dose of 5 mg/kg or […] per body weight 10 g of this solution for the dose of 7.5 mg/kg was administered into the caudal vein on day 1. The radiation group was irradiated with 2 Gy of X-ray in the above-described manner on day 1, at the start of the test, and on day 8. For tumor-bearing mice in the control group (non-radiation/non-drug treatment group) and the radiation alone group, physiological saline was administered into the caudal vein on day 1. By using the above-mentioned numerical formula 1, the tumor volume of each mouse in each group was obtained prior to the start of treatment experiment, on days 3, 5, 8 (1 week later) and 11 during the treatment period, and days 15 (2 weeks later), 18, 22 (3 weeks later), 25, and 29 (4 weeks later) after completion of treatment. A relative tumor volume (RTV) to the tumor volume at the start of the test was obtained for each mouse. Then, the mean tumor growth inhibition rate (IR; %) in each treatment group based on the control group was obtained by using the above-mentioned numerical formula 2 on days 15, at the end of the treatment period, and 29, at 4 weeks later, and shown in Table 3.
smiles,measurement,setting,value
"Oc1cc(O)c(Cl)cn1 [CDHP, 5-chloro-2,4-dihydroxypyridine]",Tumor growth inhibition rate IR(%) Day 15,"[1]; CDHP 2.5 mg/kg oral once daily 14 days + X-ray 2 Gy on days 1 and 8, Day 15",41%
same,Tumor growth inhibition rate IR(%) Day 29,"[1]; CDHP 2.5 mg/kg oral once daily 14 days + X-ray 2 Gy on days 1 and 8, Day 29",25% and 24.7* %
same,Tumor growth inhibition rate IR(%) Day 15,"[1]; CDHP 2.5 mg/kg oral once daily 14 days, X-ray 0 Gy, Day 15",17.2%
same,Tumor growth inhibition rate IR(%) Day 29,"[1]; CDHP 2.5 mg/kg oral once daily 14 days, X-ray 0 Gy, Day 29",−7.9%
same,Tumor growth inhibition rate IR(%) Day 15,"[1]; CDHP 25 mg/kg oral once daily 14 days + X-ray 2 Gy on days 1 and 8, Day 15",57% and 57.2%
same,Tumor growth inhibition rate IR(%) Day 29,"[1]; CDHP 25 mg/kg oral once daily 14 days + X-ray 2 Gy on days 1 and 8, Day 29",46% and 46.3** %
same,Tumor growth inhibition rate IR(%) Day 15,"[1]; CDHP 25 mg/kg oral once daily 14 days, X-ray 0 Gy, Day 15",9.7%
same,Tumor growth inhibition rate IR(%) Day 29,"[1]; CDHP 25 mg/kg oral once daily 14 days, X-ray 0 Gy, Day 29",−15.3%
same,enhancement of the effect of X-ray,[1]; CDHP 2.5 and 25 mg/kg with 2-Gy X-ray irradiation in combination,significantly enhanced the effect of X-ray
same,antitumor effect of drug alone,"[1]; CDHP alone, both doses 2.5 and 25 mg/kg",hardly showed any antitumor effect
same,"serious adverse drug reactions (body weight loss, skin disorders)",[1]; mice receiving CDHP and X-ray in combination,no serious adverse drug reactions such as body weight loss and skin disorders were observed
same,severity of skin disorders in the femoral region caused by irradiation,normal skin,"mild disorders (redness, swelling) were observed only in 1 or 2 mice"
"N#Cc1ccc(O)nc1O [CNDP, 3-cyano-2,6-dihydroxypyridine]",Tumor growth inhibition rate (IR) (%) Day 11,"[2]; CNDP 25 mg/kg oral once daily + X-ray 2 Gy on days 1 and 8, Day 11",44.7%
same,Tumor growth inhibition rate IR(%) Day 15,"[2]; CNDP 25 mg/kg oral once daily + X-ray 2 Gy on days 1 and 8, Day 15",54.6%
same,Tumor growth inhibition rate (IR) (%) Day 11,"[2]; CNDP 50 mg/kg oral once daily 14 days, X-ray 0 Gy, Day 11",1.8%
same,Tumor growth inhibition rate IR(%) Day 15,"[2]; CNDP 50 mg/kg oral once daily 14 days, X-ray 0 Gy, Day 15",8.2%
same,Tumor growth inhibition rate (IR) (%) Day 11,"[2]; CNDP 50 mg/kg oral once daily + X-ray 2 Gy on days 1 and 8, Day 11",44.4%
same,Tumor growth inhibition rate IR(%) Day 15,"[2]; CNDP 50 mg/kg oral once daily + X-ray 2 Gy on days 1 and 8, Day 15",60.4%
same,enhancement of the antitumor effect of X-ray,[2]; CNDP 25 and 50 mg/kg with 2-Gy X-ray irradiation in combination,significantly increased the antitumor effect of 2-Gy X-ray
same,antitumor effect of drug alone,"[2]; CNDP alone, high dose of 50 mg/kg",hardly showed any antitumor effect
same,"serious adverse drug reactions (body weight loss, skin disorders)",[2]; mice receiving CNDP and X-ray in combination,no serious adverse drug reactions such as body weight loss and skin disorders were observed
"[NH2][Pt]([NH2])([Cl])[Cl] [CDDP, cisplatin]",IR (%) Day 15,"[3]; CDDP 5.0 mg/kg caudal vein on day 1 + X-ray 2 Gy on days 1 and 8, Day 15",53.8%
same,IR (%) Day 29,"[3]; CDDP 5.0 mg/kg caudal vein on day 1 + X-ray 2 Gy on days 1 and 8, Day 29",46.8%
same,IR (%) Day 15,"[3]; CDDP 5.0 mg/kg caudal vein on day 1, no X-ray, Day 15",39.9%
same,IR (%) Day 29,"[3]; CDDP 5.0 mg/kg caudal vein on day 1, no X-ray, Day 29",45.6%
same,enhancement of antitumor effects by combination compared with CDDP alone,[3]; CDDP 5 mg/kg or 7.5 mg/kg and 2-Gy X-ray irradiation,did not significantly enhance antitumor effects
same,IR (%) Day 15,"[3]; CDDP 7.5 mg/kg caudal vein on day 1 + X-ray 2 Gy on days 1 and 8, Day 15",54.6%
same,IR (%) Day 29,"[3]; CDDP 7.5 mg/kg caudal vein on day 1 + X-ray 2 Gy on days 1 and 8, Day 29",66.8%
same,IR (%) Day 15,"[3]; CDDP 7.5 mg/kg caudal vein on day 1, no X-ray, Day 15",55.8%
same,IR (%) Day 29,"[3]; CDDP 7.5 mg/kg caudal vein on day 1, no X-ray, Day 29",60.2%
same,radiotherapy enhancing effect,[3]; series of examinations using human lung cancer LC-11 strain,very weak
